Data taken from ChEMBL document CHEMBL1255419, “Pharmacokinetic-pharmacodynamic assessment of faropenem in a lethal murine Bacillus anthracis inhalation postexposure prophylaxis model” (Antimicrob Agents Chemother, 2010).
In brackets after ≈: the same amount, converted by molar mass.

What was measured:
Format in all cases: functional
Bacillus anthracis [1] = assay: microbe, parasite or virus in culture
Bacillus anthracis [2] = assay: microbe, parasite or virus in culture; remark: listed apart in the source
Bacillus anthracis [3] = assay: microbe, parasite or virus in culture; remark: listed apart in the source
Bacillus anthracis [4] = assay: microbe, parasite or virus in culture; remark: listed apart in the source
Bacillus anthracis [5] = assay: microbe, parasite or virus in culture; remark: listed apart in the source
Bacillus anthracis [6] = assay: microbe, parasite or virus in culture; remark: listed apart in the source
Bacillus anthracis [7] = assay: microbe, parasite or virus in culture; remark: listed apart in the source
Bacillus anthracis [8] = assay: microbe, parasite or virus in culture; remark: listed apart in the source
Bacillus anthracis [9] = assay: microbe, parasite or virus in culture; remark: listed apart in the source
Bacillus anthracis [10] = assay: microbe, parasite or virus in culture; remark: listed apart in the source
Bacillus anthracis [11] = assay: microbe, parasite or virus in culture; remark: listed apart in the source
Bacillus anthracis [12] = assay: microbe, parasite or virus in culture; remark: listed apart in the source
Bacillus anthracis [13] = assay: microbe, parasite or virus in culture; remark: listed apart in the source
Bacillus anthracis [14] = assay: microbe, parasite or virus in culture; remark: listed apart in the source
Bacillus anthracis [15] = assay: microbe, parasite or virus in culture; remark: listed apart in the source
Bacillus anthracis [16] = assay: microbe, parasite or virus in culture; remark: listed apart in the source
Bacillus anthracis [17] = assay: microbe, parasite or virus in culture; remark: listed apart in the source
Bacillus anthracis [18] = assay: microbe, parasite or virus in culture; remark: listed apart in the source
Bacillus anthracis [19] = assay: microbe, parasite or virus in culture; remark: listed apart in the source
Bacillus anthracis [20] = assay: microbe, parasite or virus in culture; remark: listed apart in the source
Bacillus anthracis [21] = assay: microbe, parasite or virus in culture; remark: listed apart in the source
Bacillus anthracis [22] = assay: microbe, parasite or virus in culture; remark: listed apart in the source
Bacillus anthracis [23] = assay: Antibacterial activity against beta-lactamase Bla1 and Bla2-producing Bacillus anthracis Sterne by broth microdilution method
Bacillus anthracis [24] = assay: microbe, parasite or virus in culture; remark: listed apart in the source
Bacillus anthracis [25] = assay: microbe, parasite or virus in culture; remark: listed apart in the source
Bacillus anthracis [26] = assay: microbe, parasite or virus in culture; remark: listed apart in the source
Bacillus anthracis [27] = assay: microbe, parasite or virus in culture; remark: listed apart in the source
Bacillus anthracis [28] = assay: microbe, parasite or virus in culture; remark: listed apart in the source
Bacillus anthracis [29] = assay: microbe, parasite or virus in culture; remark: listed apart in the source

Structure (SMILES)	MIC (Bacillus anthracis [1]) [mg/L]	MIC (Bacillus anthracis [2]) [mg/L]	MIC (Bacillus anthracis [3]) [mg/L]	MIC (Bacillus anthracis [4]) [mg/L]	MIC (Bacillus anthracis [5]) [mg/L]	MIC (Bacillus anthracis [6]) [mg/L]	MIC (Bacillus anthracis [7]) [mg/L]	MIC (Bacillus anthracis [8]) [mg/L]	MIC (Bacillus anthracis [9]) [mg/L]	MIC (Bacillus anthracis [10]) [mg/L]	MIC (Bacillus anthracis [11]) [mg/L]	MIC (Bacillus anthracis [12]) [mg/L]	MIC (Bacillus anthracis [13]) [mg/L]	MIC (Bacillus anthracis [14]) [mg/L]	MIC (Bacillus anthracis [15]) [mg/L]	MIC (Bacillus anthracis [16]) [mg/L]	MIC (Bacillus anthracis [17]) [mg/L]	MIC (Bacillus anthracis [18]) [mg/L]	MIC (Bacillus anthracis [19]) [mg/L]	MIC (Bacillus anthracis [20]) [mg/L]	further results
CC[C@H]1OC(=O)[C@H](C)[C@@H](O[C@H]2C[C@@](C)(OC)[C@@H](O)[C@H](C)O2)[C@H](C)[C@@H](O[C@@H]2O[C@H](C)C[C@H](N(C)C)[C@H]2O)[C@](C)(O)C[C@@H](C)CN(C)[C@H](C)[C@@H](O)[C@]1(C)O [AZITHROMYCIN]	4 (≈ 5.34 µM)	4 (≈ 5.34 µM)	2 (≈ 2.67 µM)	4 (≈ 5.34 µM)	4 (≈ 5.34 µM)	1 (≈ 1.34 µM)	4 (≈ 5.34 µM)	4 (≈ 5.34 µM)	4 (≈ 5.34 µM)	4 (≈ 5.34 µM)	4 (≈ 5.34 µM)	2 (≈ 2.67 µM)	2 (≈ 2.67 µM)	4 (≈ 5.34 µM)	4 (≈ 5.34 µM)	4 (≈ 5.34 µM)	2 (≈ 2.67 µM)	4 (≈ 5.34 µM)	2 (≈ 2.67 µM)	4 (≈ 5.34 µM)	MIC (Bacillus anthracis [21]): 2 mg/L (≈ 2.67 µM); MIC (Bacillus anthracis [22]): 4 mg/L (≈ 5.34 µM); MIC (Bacillus anthracis [23]): 2 mg/L (≈ 2.67 µM); MIC (Bacillus anthracis [24]): 4 mg/L (≈ 5.34 µM); MIC (Bacillus anthracis [25]): 2 mg/L (≈ 2.67 µM); MIC (Bacillus anthracis [26]): 4 mg/L (≈ 5.34 µM); MIC (Bacillus anthracis [27]): 4 mg/L (≈ 5.34 µM); MIC (Bacillus anthracis [28]): 4 mg/L (≈ 5.34 µM); MIC (Bacillus anthracis [29]): 2 mg/L (≈ 2.67 µM)
C[C@H]1c2cccc(O)c2C(=O)C2=C(O)[C@]3(O)C(=O)C(C(N)=O)=C(O)[C@@H](N(C)C)[C@@H]3[C@@H](O)[C@@H]21.O [DOXYCYCLINE]	≤ 0.06	≤ 0.06	≤ 0.06	≤ 0.06	≤ 0.06	≤ 0.06	≤ 0.06	≤ 0.06	≤ 0.06	≤ 0.06	≤ 0.06	≤ 0.06	≤ 0.06	0.25	≤ 0.06	≤ 0.06	≤ 0.06	≤ 0.06	≤ 0.06	≤ 0.06	MIC (Bacillus anthracis [21]): ≤ 0.06 mg/L; MIC (Bacillus anthracis [22]): ≤ 0.06 mg/L; MIC (Bacillus anthracis [23]): ≤ 0.06 mg/L; MIC (Bacillus anthracis [24]): ≤ 0.06 mg/L; MIC (Bacillus anthracis [25]): ≤ 0.06 mg/L; MIC (Bacillus anthracis [26]): ≤ 0.06 mg/L; MIC (Bacillus anthracis [27]): ≤ 0.06 mg/L; MIC (Bacillus anthracis [28]): ≤ 0.06 mg/L; MIC (Bacillus anthracis [29]): ≤ 0.06 mg/L
C[C@@H](O)[C@H]1C(=O)N2C(C(=O)O)=C(S[C@@H]3CN[C@H](C(=O)N(C)C)C3)[C@H](C)[C@H]12 [MEROPENEM]	0.12 (≈ 0.313 µM)	0.12 (≈ 0.313 µM)	0.12 (≈ 0.313 µM)	0.25 (≈ 0.652 µM)	0.12 (≈ 0.313 µM)	≤ 0.06	8 (≈ 20.9 µM)	0.25 (≈ 0.652 µM)	0.12 (≈ 0.313 µM)	0.12 (≈ 0.313 µM)	0.25 (≈ 0.652 µM)	0.12 (≈ 0.313 µM)	0.12 (≈ 0.313 µM)	0.25 (≈ 0.652 µM)	0.12 (≈ 0.313 µM)	0.12 (≈ 0.313 µM)	0.25 (≈ 0.652 µM)	0.25 (≈ 0.652 µM)	0.06 (≈ 0.156 µM)	0.12 (≈ 0.313 µM)	MIC (Bacillus anthracis [21]): < 0.06 mg/L; MIC (Bacillus anthracis [22]): 0.12 mg/L (≈ 0.313 µM); MIC (Bacillus anthracis [23]): ≤ 0.06 mg/L; MIC (Bacillus anthracis [24]): 0.12 mg/L (≈ 0.313 µM); MIC (Bacillus anthracis [25]): 0.5 mg/L (≈ 1.3 µM); MIC (Bacillus anthracis [26]): 32 mg/L (≈ 83.4 µM); MIC (Bacillus anthracis [27]): 0.12 mg/L (≈ 0.313 µM); MIC (Bacillus anthracis [28]): 0.25 mg/L (≈ 0.652 µM); MIC (Bacillus anthracis [29]): 4 mg/L (≈ 10.4 µM)
CC1(C)S[C@@H]2[C@H](NC(=O)Cc3ccccc3)C(=O)N2[C@H]1C(=O)O [PENICILLIN G]	2 (≈ 5.98 µM)	2 (≈ 5.98 µM)	4 (≈ 12 µM)	2 (≈ 5.98 µM)	2 (≈ 5.98 µM)	1 (≈ 2.99 µM)	2 (≈ 5.98 µM)	2 (≈ 5.98 µM)	2 (≈ 5.98 µM)	1 (≈ 2.99 µM)	4 (≈ 12 µM)	8 (≈ 23.9 µM)	4 (≈ 12 µM)	2 (≈ 5.98 µM)	2 (≈ 5.98 µM)	4 (≈ 12 µM)	4 (≈ 12 µM)	1 (≈ 2.99 µM)	4 (≈ 12 µM)	1 (≈ 2.99 µM)	MIC (Bacillus anthracis [21]): 1 mg/L (≈ 2.99 µM); MIC (Bacillus anthracis [22]): 1 mg/L (≈ 2.99 µM); MIC (Bacillus anthracis [23]): 4 mg/L (≈ 12 µM); MIC (Bacillus anthracis [24]): 1 mg/L (≈ 2.99 µM); MIC (Bacillus anthracis [25]): 2 mg/L (≈ 5.98 µM); MIC (Bacillus anthracis [26]): 32 mg/L (≈ 95.7 µM); MIC (Bacillus anthracis [27]): 2 mg/L (≈ 5.98 µM); MIC (Bacillus anthracis [28]): 8 mg/L (≈ 23.9 µM); MIC (Bacillus anthracis [29]): 8 mg/L (≈ 23.9 µM)
